According to patent US20080262097A1, “Formulations” (priority 2005, published 2008):
Values after ≈ are worked out from the molar mass of the structure shown. Where two headings read alike, the source gives them in different places.

Tests used:
P. granulosum NCTC 11865 = experiment: MBC assay; format: cell-based; details: P. granulosum NCTC 11865 (resistance None)
Procedure: (§1) The Propionibacterium spp organisms were cultured and maintained on Wilkins-Chalgren Anaerobe Medium (agar and broth) at pH 6.0; cultures were incubated anaerobically at 37° C. for 72 hours.
(§2) This assay, normally carried out after an MIC assay, determines the minimum concentration of a compound that is lethal to the micro-organism being tested.
(§3) These samples were then individually sub-cultured on non-selective agar medium, under the incubation conditions described above. Following incubation they were examined visually for bacterial growth.

P. granulosum PRP-044 = experiment: MBC assay; format: cell-based; details: P. granulosum PRP-044 (resistance MLS)
Procedure: as §1, §2, §3

P. granulosum PRP-055 = experiment: MBC assay; format: cell-based; details: P. granulosum PRP-055 (resistance None)
Procedure: as §1, §2, §3

P. granulosum PRP-005 = experiment: MBC assay; format: cell-based; details: P. granulosum PRP-005 (resistance MLSK)
Procedure: as §1, §2, §3

P. granulosum PRP-043 = experiment: MBC assay; format: cell-based; details: P. granulosum PRP-043 (resistance MLS)
Procedure: as §1, §2, §3

P. avidum ATCC 25577 = experiment: MBC assay; format: cell-based; details: Cutibacterium avidum, ATCC25577
Procedure: as §1, §2, §3

P. acnes PRP-010 = experiment: MIC assay; format: cell-based, Propionibacterium acnes; details: Cutibacterium acnes, PRP010; P. acnes PRP-010 (resistance MLSK)
Procedure: Other propionibacterial strains were also tested, as described in Example 8 below. These included certain antibiotic resistant propionibacteria, such as the two P. acnes strains PRP-010 and PRP-053 which are resistant respectively to macrolides-lincosamides-streptogramins-ketolides (MLSK) and to macrolides-lincosamides-streptogramins (MLS) and tetracycline—in other words, PRP-010 is resistant to erythromycin and clindamycin, and […] to erythromycin, clindamycin and tetracycline.
as §1
(§4) This is a standard international method for quantitatively assessing the antimicrobial activity of a compound in a liquid medium. The method used a 96-well microtitre plate, capable of holding about 200 μl of liquid per well. […] The culture media were as described above for the relevant test organisms.
(§5) The wells were inoculated with a liquid suspension of freshly grown micro-organism and incubated under the conditions described above. After incubation, the microtitre plate was examined visually (with the aid of a light box) for cell pellets in and/or opaque wells, which would indicate microbial growth. The MIC value was recorded as the lowest concentration of test compound required to inhibit microbial growth, ie, the lowest concentration for which the liquid in the well remained clear.
(§6) The assays were conducted in duplicate and included both negative (culture medium only) and positive (culture medium, diluting solvent and inoculum) controls.

P. acnes PRP-007 [1] = experiment: MIC assay; format: cell-based, Propionibacterium acnes; details: Cutibacterium acnes, PRP007; P. acnes PRP-007 (resistance Clin)
Procedure: as §1, §4, §5, §6

P. acnes PRP-003 [2] = experiment: MIC assay; format: cell-based, Propionibacterium acnes; details: Cutibacterium acnes, PRP003; P. acnes PRP-003 (resistance Tet)
Procedure: as §1, §4, §5, §6

P. acnes PRP-068 [3] = experiment: MIC assay; format: cell-based, Propionibacterium acnes; details: Cutibacterium acnes, PRP068; P. acnes PRP-068 (resistance Ery)
Procedure: as §1, §4, §5, §6

P. acnes PRP-008 [4] = experiment: MIC assay; format: cell-based, Propionibacterium acnes; details: Cutibacterium acnes, PRP008; P. acnes PRP-008 (resistance Clin)
Procedure: as §1, §4, §5, §6

P. acnes PRP-102 [5] = experiment: MIC assay; format: cell-based, Propionibacterium acnes; details: Cutibacterium acnes, PRP102; P. acnes PRP-102 (resistance Tet/MLS)
Procedure: as §1, §4, §5, §6

P. acnes PRP-101 [6] = experiment: MIC assay; format: cell-based, Propionibacterium acnes; details: Cutibacterium acnes, PRP101; P. acnes PRP-101 (resistance Tet/MLS)
Procedure: as §1, §4, §5, §6

P. acnes PRP-059 = experiment: MBC assay; format: cell-based, Propionibacterium acnes; details: Cutibacterium acnes, PRP059; P. acnes PRP-059 (resistance MLS)
Procedure: as §1, §2, §3

P. acnes PRP-007 [7] = experiment: MBC assay; format: cell-based, Propionibacterium acnes; details: Cutibacterium acnes, PRP007; P. acnes PRP-007 (resistance Clin)
Procedure: as §1, §2, §3

P. acnes PRP-003 [8] = experiment: MBC assay; format: cell-based, Propionibacterium acnes; details: Cutibacterium acnes, PRP003; P. acnes PRP-003 (resistance Tet)
Procedure: as §1, §2, §3

P. acnes PRP-004 = experiment: MBC assay; format: cell-based, Propionibacterium acnes; details: Cutibacterium acnes, PRP004; P. acnes PRP-004 (resistance Tet)
Procedure: as §1, §2, §3

P. acnes PRP-068 [9] = experiment: MBC assay; format: cell-based, Propionibacterium acnes; details: Cutibacterium acnes, PRP068; P. acnes PRP-068 (resistance Ery)
Procedure: as §1, §2, §3

P. acnes PRP-008 [10] = experiment: MBC assay; format: cell-based, Propionibacterium acnes; details: Cutibacterium acnes, PRP008; P. acnes PRP-008 (resistance Clin)
Procedure: as §1, §2, §3

P. acnes PRP-102 [11] = experiment: MBC assay; format: cell-based, Propionibacterium acnes; details: Cutibacterium acnes, PRP102; P. acnes PRP-102 (resistance Tet/MLS)
Procedure: as §1, §2, §3

P. acnes PRP-046 = experiment: MBC assay; format: cell-based, Propionibacterium acnes; details: Cutibacterium acnes, PRP046; P. acnes PRP-046 (resistance None)
Procedure: as §1, §2, §3

P. acnes PRP-002 = experiment: MBC assay; format: cell-based, Propionibacterium acnes; details: Cutibacterium acnes, PRP002; P. acnes PRP-002 (resistance Tet/MLS)
Procedure: as §1, §2, §3

P. acnes PRP-023 = experiment: MBC assay; format: cell-based, Propionibacterium acnes; details: Cutibacterium acnes, PRP023; P. acnes PRP-023 (resistance MLSK)
Procedure: as §1, §2, §3

P. acnes PRP-101 [12] = experiment: MBC assay; format: cell-based, Propionibacterium acnes; details: Cutibacterium acnes, PRP101; P. acnes PRP-101 (resistance Tet/MLS)
Procedure: as §1, §2, §3

P. acnes PRP-026 = experiment: MBC assay; format: cell-based, Propionibacterium acnes; details: Cutibacterium acnes, PRP026; P. acnes PRP-026 (resistance MLS)
Procedure: as §1, §2, §3

P. acnes PRP-017 = experiment: MBC assay; format: cell-based, Propionibacterium acnes; details: Cutibacterium acnes, PRP017; P. acnes PRP-017 (resistance MLS)
Procedure: as §1, §2, §3

In the case of `O=C(OOC(=O)c1ccccc1)c1ccccc1` [benzoyl peroxide], the MBC (P. granulosum NCTC 11865) is reported as 15.6 µg/mL (≈ 64.4 µM), the MBC (P. granulosum PRP-044) is reported as 31.2 µg/mL (≈ 129 µM) and the MBC (P. granulosum PRP-055) is reported as 15.6 µg/mL (≈ 64.4 µM). It also gave an MBC (P. granulosum PRP-005) of 15.6 µg/mL (≈ 64.4 µM), an MBC (P. granulosum PRP-043) of 62.5 µg/mL (≈ 258 µM) and an MBC (P. avidum ATCC 25577) of 62.5 µg/mL (≈ 258 µM). The MIC (P. acnes PRP-010) was 31.2 µg/mL (≈ 129 µM), the MIC (P. acnes PRP-007 [1]) was 31.2 µg/mL (≈ 129 µM) and the MIC (P. acnes PRP-003 [2]) was 31.2 µg/mL (≈ 129 µM). It also gave an MIC (P. acnes PRP-068 [3]) of 62.5 µg/mL (≈ 258 µM), an MIC (P. acnes PRP-008 [4]) of 31.2 µg/mL (≈ 129 µM) and an MIC (P. acnes PRP-102 [5]) of 62.5 µg/mL (≈ 258 µM). For the same molecule, the MIC (P. acnes PRP-101 [6]) was 15.6 µg/mL (≈ 64.4 µM), the MBC (P. acnes PRP-059) was 125 µg/mL (≈ 516 µM) and the MBC (P. acnes PRP-007 [7]) was 62.5 µg/mL (≈ 258 µM). For the same molecule, the MBC (P. acnes PRP-003 [8]) was 31.2 µg/mL (≈ 129 µM), the MBC (P. acnes PRP-004) was 15.6 µg/mL (≈ 64.4 µM) and the MBC (P. acnes PRP-068 [9]) was 125 µg/mL (≈ 516 µM). It also gave an MBC (P. acnes PRP-008 [10]) of 31.2 µg/mL (≈ 129 µM), an MBC (P. acnes PRP-102 [11]) of 62.5 µg/mL (≈ 258 µM) and an MBC (P. acnes PRP-046) of 62.5 µg/mL (≈ 258 µM). For the same molecule, the MBC (P. acnes PRP-002) was 31.2 µg/mL (≈ 129 µM), the MBC (P. acnes PRP-023) was 62.5 µg/mL (≈ 258 µM) and the MBC (P. acnes PRP-101 [12]) was 31.2 µg/mL (≈ 129 µM). It also gave an MBC (P. acnes PRP-026) of 31.2 µg/mL (≈ 129 µM) and an MBC (P. acnes PRP-017) of 62.5 µg/mL (≈ 258 µM).
In the case of `CC(C)(C)c1cc(O)ccc1O` [TBHQ, t-butyl hydroquinone], the MBC (P. granulosum NCTC 11865) is reported as 7.8 µg/mL (≈ 46.9 µM), the MBC (P. granulosum PRP-044) is reported as 31.2 µg/mL (≈ 188 µM) and the MBC (P. granulosum PRP-055) is reported as 7.8 µg/mL (≈ 46.9 µM). It also gave an MBC (P. granulosum PRP-005) of 62.5 µg/mL (≈ 376 µM), an MBC (P. granulosum PRP-043) of 15.6 µg/mL (≈ 93.9 µM) and an MBC (P. avidum ATCC 25577; P. avidum ATCC 25577 (resistance None), read-out: MBC) of 3.9 µg/mL (≈ 23.5 µM). For the same molecule, the MIC (P. acnes PRP-010) was 3.9 µg/mL (≈ 23.5 µM), the MIC (P. acnes PRP-007 [1]) was 3.9 µg/mL (≈ 23.5 µM) and the MIC (P. acnes PRP-003 [2]) was 7.8 µg/mL (≈ 46.9 µM). The MIC (P. acnes PRP-068 [3]) was 3.9 µg/mL (≈ 23.5 µM), the MIC (P. acnes PRP-008 [4]) was 3.9 µg/mL (≈ 23.5 µM) and the MIC (P. acnes PRP-102 [5]) was 7.8 µg/mL (≈ 46.9 µM). The MIC (P. acnes PRP-101 [6]) was 3.9 µg/mL (≈ 23.5 µM), the MBC (P. acnes PRP-059) was 7.8 µg/mL (≈ 46.9 µM) and the MBC (P. acnes PRP-007 [7]) was 7.8 µg/mL (≈ 46.9 µM). For the same molecule, the MBC (P. acnes PRP-003 [8]) was 7.8 µg/mL (≈ 46.9 µM), the MBC (P. acnes PRP-004) was 7.8 µg/mL (≈ 46.9 µM) and the MBC (P. acnes PRP-068 [9]) was 7.8 µg/mL (≈ 46.9 µM). The MBC (P. acnes PRP-008 [10]) was 7.8 µg/mL (≈ 46.9 µM), the MBC (P. acnes PRP-102 [11]) was 15.6 µg/mL (≈ 93.9 µM) and the MBC (P. acnes PRP-046) was 7.8 µg/mL (≈ 46.9 µM). For the same molecule, the MBC (P. acnes PRP-002) was 7.8 µg/mL (≈ 46.9 µM), the MBC (P. acnes PRP-023) was 7.8 µg/mL (≈ 46.9 µM) and the MBC (P. acnes PRP-101 [12]) was 7.8 µg/mL (≈ 46.9 µM). The MBC (P. acnes PRP-026) was 7.8 µg/mL (≈ 46.9 µM) and the MBC (P. acnes PRP-017) was 7.8 µg/mL (≈ 46.9 µM).
